Reference: PubChem BioAssay (NCI)
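Tested at 5 concentrations; 48 h exposure; 96-well plates; endpoints linearly interpolated, else capped at highest concentration. GI50 marks 50% less growth. Definition used: TGI = concentration required for complete inhibition of growth.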

Assays:
Assay in all cases: growth of human tumour cells (NCI), 48 h
[1] = test system: SR leukemia
[2] = test system: OVCAR-5 ovarian
[3] = test system: T-47D breast
[4] = test system: NCI/ADR-RES ovarian
[5] = test system: A549 NSCLC
[6] = test system: SW-620 colon
[7] = test system: SK-MEL-28 melanoma
[8] = test system: LOX IMVI melanoma
[9] = test system: NCI-H23 lung
[10] = test system: RXF 393 renal
[11] = test system: SK-MEL-5 melanoma
[12] = test system: IGROV1 ovarian
[13] = test system: M14 melanoma
[14] = test system: MDA-MB-435
[15] = test system: NCI-H226 lung
[16] = test system: SK-MEL-2 melanoma
[17] = test system: HCC-2998 colon
[18] = test system: HT29 colon
[19] = test system: BT-549 breast
[20] = test system: SK-OV-3 ovarian
[21] = test system: OVCAR-3 ovarian
[22] = test system: A498 renal
[23] = test system: COLO 205 colon
[24] = test system: MCF7 breast
[25] = test system: HOP-62 NSCLC
[26] = test system: K-562 leukemia
[27] = test system: HS 578T breast
[28] = test system: MDA-MB-231 breast
[29] = test system: HCT-15 colon
[30] = test system: RPMI-8226 leukemia
[31] = test system: TK-10 renal
[32] = test system: UACC-62 melanoma
[33] = test system: ACHN renal
[34] = test system: DU-145 prostate
[35] = test system: HOP-92 NSCLC
[36] = test system: KM12 colon
[37] = test system: SNB-75 CNS
[38] = test system: SF-268 CNS
[39] = test system: CAKI-1 renal
[40] = test system: MOLT-4 leukemia
[41] = test system: CCRF-CEM leukemia
[42] = test system: PC-3 prostate
[43] = test system: SF-295 CNS
[44] = test system: SNB-19 CNS
[45] = test system: OVCAR-8 ovarian
[46] = test system: EKVX NSCLC
[47] = test system: SN12C renal
[48] = test system: UACC-257 melanoma
[49] = test system: MALME-3M melanoma
[50] = test system: HL-60(TB) leukemia
[51] = test system: SF-539 CNS
[52] = test system: 786-0 renal
[53] = test system: NCI-H460 lung
[54] = test system: HCT-116 colon
[55] = test system: OVCAR-4 ovarian
[56] = test system: UO-31 renal
[57] = test system: NCI-H522 lung
[58] = test system: U251 CNS

O=C1c2ccccc2-c2c1c1ccccc1c(=O)n2CCCNCCO
GI50 [1]: 0.086 µM
TGI [1]: 0.618 µM
GI50 [2]: 1.05 µM
TGI [2]: 7.27 µM
GI50 [3]: 1.05 µM
TGI [3]: 7.58 µM
GI50 [4]: 1.67 µM
TGI [4]: 8.7 µM
GI50 [5]: 0.267 µM
TGI [5]: 12.8 µM
GI50 [6]: 0.145 µM
TGI [6]: 5.26 µM
GI50 [7]: 1.24 µM
TGI [7]: 2.95 µM
GI50 [8]: 0.206 µM
TGI [8]: 2.79 µM
GI50 [9]: 0.818 µM
TGI [9]: 4.97 µM
GI50 [10]: 0.585 µM
TGI [10]: 4.03 µM
GI50 [11]: 0.198 µM
TGI [11]: 0.877 µM
GI50 [12]: 0.501 µM
TGI [12]: 3.76 µM
GI50 [13]: 1.21 µM
TGI [13]: 3 µM
GI50 [14]: 0.895 µM
TGI [14]: 4.92 µM
GI50 [15]: 1.45 µM
TGI [15]: 5.38 µM
GI50 [16]: 2.84 µM
TGI [16]: 6.15 µM
GI50 [17]: 1.28 µM
TGI [17]: 5.74 µM
GI50 [18]: 0.33 µM
TGI [18]: 6.68 µM
GI50 [19]: 1.65 µM
TGI [19]: 5.9 µM
GI50 [20]: 2.1 µM
TGI [20]: 14.4 µM
GI50 [21]: 1.07 µM
TGI [21]: 6.13 µM
TGI [22]: 1.28 µM
GI50 [23]: 0.63 µM
TGI [23]: 3.75 µM
GI50 [24]: 0.102 µM
TGI [24]: 5.03 µM
GI50 [25]: 0.317 µM
TGI [25]: 2.61 µM
GI50 [26]: 0.284 µM
TGI [26]: 7.95 µM
GI50 [27]: 0.589 µM
TGI [27]: 5.04 µM
GI50 [28]: 1.5 µM
TGI [28]: 6.55 µM
GI50 [29]: 0.554 µM
TGI [29]: 6.13 µM
GI50 [30]: 0.241 µM
TGI [30]: 1.76 µM
GI50 [31]: 1.33 µM
TGI [31]: 7.44 µM
GI50 [32]: 0.304 µM
TGI [32]: 1.74 µM
GI50 [33]: 0.195 µM
TGI [33]: 0.906 µM
GI50 [34]: 0.189 µM
TGI [34]: 4.72 µM
GI50 [35]: 0.357 µM
TGI [35]: 2.61 µM
GI50 [36]: 0.485 µM
TGI [36]: 4 µM
GI50 [37]: 1.43 µM
TGI [37]: 5.68 µM
GI50 [38]: 0.796 µM
TGI [38]: 8.85 µM
GI50 [39]: 0.438 µM
TGI [39]: 3.34 µM
GI50 [40]: 0.0879 µM
TGI [40]: 0.522 µM
GI50 [41]: 0.165 µM
TGI [41]: 1.11 µM
GI50 [42]: 0.752 µM
TGI [42]: 4.47 µM
GI50 [43]: 0.568 µM
TGI [43]: 4.02 µM
GI50 [44]: 0.813 µM
TGI [44]: 6.73 µM
GI50 [45]: 0.239 µM
TGI [45]: 11.6 µM
GI50 [46]: 2.38 µM
TGI [46]: 8.35 µM
GI50 [47]: 0.454 µM
TGI [47]: 6.25 µM
GI50 [48]: 1.25 µM
TGI [48]: 4.39 µM
GI50 [49]: 0.511 µM
TGI [49]: 1.93 µM
GI50 [50]: 0.175 µM
TGI [50]: 0.88 µM
GI50 [51]: 0.578 µM
TGI [51]: 2.96 µM
GI50 [52]: 0.234 µM
TGI [52]: 10.9 µM
GI50 [53]: 0.111 µM
TGI [53]: 1.56 µM
GI50 [54]: 0.298 µM
TGI [54]: 3.53 µM
GI50 [55]: 1.24 µM
TGI [55]: 5.95 µM
GI50 [56]: 0.303 µM
TGI [56]: 2.06 µM
GI50 [57]: 0.689 µM
TGI [57]: 4.33 µM
GI50 [58]: 0.302 µM
TGI [58]: 5.61 µM

CCCCOc1nc2ccccc2cc1C1CNC(=O)c2ccccc2N1 (stereo unspecified)
GI50 [1]: 1.13 µM
TGI [1]: 12.5 µM
GI50 [2]: 5.4 µM
TGI [2]: 31.4 µM
GI50 [3]: 5.55 µM
TGI [3]: > 100 µM
GI50 [4]: 2.12 µM
TGI [4]: 8.76 µM
GI50 [5]: 4.25 µM
TGI [5]: 15.9 µM
GI50 [6]: 2.59 µM
TGI [6]: 21.5 µM
GI50 [7]: 4.82 µM
TGI [7]: 23.6 µM
GI50 [8]: 3.24 µM
TGI [8]: 15.4 µM
GI50 [9]: 5.19 µM
TGI [9]: 35.1 µM
GI50 [10]: 2.25 µM
TGI [10]: 10.2 µM
GI50 [11]: 2.79 µM
TGI [11]: 18.4 µM
GI50 [12]: 4.63 µM
TGI [12]: 22.9 µM
GI50 [13]: 1.53 µM
TGI [13]: 9.03 µM
GI50 [14]: 0.546 µM
TGI [14]: 1.82 µM
GI50 [15]: 4.82 µM
TGI [15]: 19.2 µM
GI50 [16]: 4.06 µM
TGI [16]: 29.6 µM
GI50 [17]: 3.68 µM
TGI [17]: 21.5 µM
GI50 [18]: 3.3 µM
TGI [18]: 10.6 µM
GI50 [19]: 4.17 µM
TGI [19]: 23.2 µM
GI50 [20]: 2.94 µM
TGI [20]: 13.3 µM
GI50 [21]: 1.56 µM
TGI [21]: 3.86 µM
GI50 [22]: 0.807 µM
TGI [22]: 5.3 µM
GI50 [23]: 2.39 µM
TGI [23]: 5.63 µM
GI50 [24]: 2.23 µM
TGI [24]: 15.4 µM
GI50 [25]: 3.08 µM
TGI [25]: 17.7 µM
GI50 [26]: 1.26 µM
TGI [26]: 14.2 µM
GI50 [27]: 2.63 µM
TGI [27]: 19 µM
GI50 [28]: 4.78 µM
TGI [28]: 26 µM
GI50 [29]: 2.3 µM
TGI [29]: 11.3 µM
GI50 [30]: 2.81 µM
TGI [30]: 16 µM
GI50 [31]: 5.92 µM
TGI [31]: 22.1 µM
GI50 [32]: 1.95 µM
TGI [32]: 12.3 µM
GI50 [33]: 4.31 µM
TGI [33]: 17.8 µM
GI50 [34]: 3.19 µM
TGI [34]: 12 µM
GI50 [35]: 4.57 µM
TGI [35]: 26.6 µM
GI50 [36]: 3.31 µM
TGI [36]: 72.5 µM
GI50 [37]: 1.75 µM
TGI [37]: 12.2 µM
GI50 [38]: 4.24 µM
TGI [38]: > 48.5 µM
GI50 [39]: 3.11 µM
TGI [39]: 23.6 µM
GI50 [40]: 2.95 µM
TGI [40]: 13.5 µM
GI50 [41]: 2.93 µM
TGI [41]: 18.8 µM
GI50 [42]: 2.95 µM
TGI [42]: 13.9 µM
GI50 [43]: 1.63 µM
TGI [43]: 8.49 µM
GI50 [44]: 5.55 µM
TGI [44]: 44.8 µM
GI50 [45]: 3.64 µM
TGI [45]: 15.7 µM
GI50 [46]: 5.15 µM
TGI [46]: 63 µM
GI50 [47]: 3.77 µM
TGI [47]: 18.9 µM
GI50 [48]: 8.16 µM
TGI [48]: > 100 µM
GI50 [49]: 5.82 µM
TGI [49]: 38.4 µM
GI50 [50]: 0.357 µM
TGI [50]: 1.9 µM
GI50 [51]: 2.3 µM
TGI [51]: 6.86 µM
GI50 [52]: 3.14 µM
TGI [52]: 11.1 µM
GI50 [53]: 3.16 µM
TGI [53]: 11.5 µM
GI50 [54]: 1.92 µM
TGI [54]: 5.47 µM
GI50 [55]: 4.77 µM
TGI [55]: 24.8 µM
GI50 [56]: 2.83 µM
TGI [56]: 20 µM
GI50 [57]: 2.75 µM
TGI [57]: 21.2 µM
GI50 [58]: 3.35 µM
TGI [58]: 14.2 µM
